Reference: patent publication US20180203025A1, “HDL THERAPY MARKERS” (Cerenis Therapeutics Holding SA, priority 2014, published 2018)

Assays:
J774 macrophages = assay: Radioactive cholesterol efflux from J774 macrophages; format: cell-based, mouse; settings: Study N; 0.03 to 10 mM; 6 hours
Experimental: J774 macrophages obtained from ATCC (No TIB-67) were grown in Dulbecco's modified Eagle's medium (DMEM, Invitrogen) supplemented with 10% FBS (foetal bovine serum, Invitrogen), 100 units/ml penicillin G (Invitrogen), and 100 units/ml streptomycin (Invitrogen) at 37° C. with 5% CO2. Cells were seeded on 24-well plates (Falcon) at 40,000 cells/well and grown for 32 hours in 2 ml DMEM 10% FBS. LDL oxidation: 1 ml LDL is dialyzed against 4 L PBS (twice, 12 hours each) in Slide-A-Lyzer™ Mini Dialysis Units 7000MWCO (Pierce).
[1] After dialysis, proteins-LDL are quantified with Coomassie protein assay (#1856209, ThermoScientific) using albumin (#23209, ThermoScientific) as standards. Absorbance is read with Glomax multi detection System (Promega) at 600 nm. […] After dialysis, proteins-LDL are quantified by same method as. […]
The efflux is induced by adding different acceptors for 6 hours (or different time between 1 to 24 hours) in 250 μl DMEM without FBS. Radioactivity was measured by adding the medium (0.25 ml) to Super Mix (0.75 ml) (1200-439 Perkin-Elmer), mixed in 24 well flexible microplate (1450-402 Perkin-Elmer) and radioactivity was measured with MicroBeta® Trilux (2 minutes counting time). The intracellular [^3H] cholesterol was extracted by 0.2 ml hexane-isopropanol (3:2) (incubation 0.5 hours) and measured by liquid scintillation counting. […]

[1] = tested on: LXR mRNA in mouse macrophages (J774); assay: LXR gene expression (real-time PCR) in J774 macrophages; format: cell-based; settings: Study P; 0.03 to 30 mM; 6 hours
Experimental: The mRNA regulation of those genes expressing ABCA1, ABCG1 and SR-BI is linked to nuclear proteins as LXR, SREBP1 and SREBP2. […] Gene expression was assayed using the protocols described in Sections 8.3.2 (RNA extraction); 8.3.4 (reverse transcription), and 8.3.5 (qPCR). SREBP-1, SREBP-2 and LXR gene expression levels were determined with Taqman probe (Mm01138344.m1, Mm01306292.m1, Mm00443451.m1 respectively) according to the manufacturer's protocol. The reference gene used is HPRT1 (Taqman probe: Mm00446968.m1).
This study used β-cyclodextrin to examine the effect of β-cyclodextrin on LXR, SREBP1 and SREBP2 mRNA expression in J774 macrophages. J774 were seeded on 6 well plates (300,000 cells/well). β-cyclodextrin (0.03, 0.1, 0.3, 1, 3, 10 and 30 mM) was added for 6 hours on the macrophages and the RNA were extracted with the RiboPure™ kit according to the manufacturer's protocol. Gene expression was assayed using the protocols described in Sections 8.3.2 (RNA extraction); 8.3.4 (reverse transcription), and 8.3.5 (qPCR). SREBP-1, SREBP-2 and LXR gene expression were determined with Taqman probe (Mm01138344.m1, Mm01306292.m1, Mm00443451.m1 respectively) according to the manufacturer's protocol. The reference gene used is HPRT1 (Taqman probe: Mm00446968.m1).

[2] = Cholesterol content in mouse feces; format: in vivo
Experimental: The left and right carotids, the liver, the spleen and the aortas connected to the heart were removed and stored at −80° C. The liver was collected in four different aliquots. The remaining biological specimens were discarded after the organ collection. For feces collection, the day of the last injection for each group, the cage was changed with a new litter and feces were collected for 24 hours (day of sacrifice).
Feces were lipid extracted and analyzed by HPLC for their cholesterol content. Feces (200 mg) were solubilized in methanol:water (50:50) solution and mixed for 1 minute with Turrax®. The solution was frozen and lyophilized overnight. The following day, 4 mL of chloroform/methanol (2:1) was added and the solution was mixed for 24 hours at 4° C. To this was added water (1.33 mL), and the solution was then mixed and centrifuged for three minutes at 3700×g. The organic phase was saved and dried. The pellet was solubilized in absolute ethanol (2 mL), and filtered on cartridge AC 0.2 μm. The cholesterol concentration in the sample was analyzed according to the method of Section 9.2.7.

[3] = tested on: TAV and PAV of the target coronary artery; assay: CHI SQUARE IVUS post-hoc analysis by SAHMRI (second approach); format: in vivo, human
Experimental: A post-hoc analysis of the IVUS data was performed by the South Australian Health & Medical Research Institute (SAHMRI).
In this case there were similar frame-counts between baseline and follow-up. The number of frames selected were normally distributed (FIG. 3).

SR-BI in mouse liver = assay: SR-BI protein content in mouse liver; format: in vivo; settings: 24 hours after the last injection; increasing concentrations
Experimental: This study examined the SR-BI and ABCA1 protein content in the liver 24 hours after the last injection of CER-001. A piece of liver (50 mg) was lysed in PBS (500 μL) by brief sonication. The sample was centrifuged (800×g for 10 minutes) and the pellet was discarded. The supernatant was centrifuged for 30 minutes at 16,000×g at 4° C. and the pellet was solubilized with PBS 1% Triton X100 (200 μL). 10 μg of solubilized pellet was loaded on SDS PAGE 10% and ABCA1 expression (ab7360—dilution 1/1000) or SR-BI expression (ab24603—dilution 1/1000) was quantified using imageJ® software.

[4] = baseline PAV equal to or greater than 30, mITT, 3 mg/kg (n = 58)
[5] = baseline PAV equal to or greater than 30, mITT, 6 mg/kg (n = 78)
[6] = baseline PAV equal to or greater than 30, mITT, 12 mg/kg (n = 66)

Row | Compound | cholesterol efflux (J774 macrophages) | LXR mRNA [1] | feces cholesterol content ([2]; feces collected 24 hours after last injection) | concentration of maximum cholesterol excretion ([2]; mouse, in vivo) | change in TAV and PAV versus placebo ([3]; baseline PAV equal to or greater than 30, mITT, 3 mg/kg) | PAV LS mean change (ANCOVA) [3, 4] | TAV LS mean change (ANCOVA) [3, 4] | PAV LS mean change (ANCOVA) [3, 5] | TAV LS mean change (ANCOVA) [3, 5] | PAV LS mean change (ANCOVA) [3, 6] | TAV LS mean change (ANCOVA) [3, 6] | shape of dose-effect curve ([3]; humans, 3, 6, 12 mg/kg) | reduction in PAV and TAV versus baseline ([3]; mITT population) | TAV and PAV versus placebo ([3]; mPP population, 3 mg/kg) | liver SR-BI protein level (SR-BI in mouse liver)
1 | OC[C@H]1O[C@@H]2O[C@H]3[C@H](O)[C@@H](O)[C@@H](O[C@H]4[C@H](O)[C@@H](O)[C@@H](O[C@H]5[C@H](O)[C@@H](O)[C@@H](O[C@H]6[C@H](O)[C@@H](O)[C@@H](O[C@H]7[C@H](O)[C@@H](O)[C@@H](O[C@H]8[C@H](O)[C@@H](O)[C@@H](O[C@H]1[C@H](O)[C@H]2O)O[C@@H]8CO)O[C@@H]7CO)O[C@@H]6CO)O[C@@H]5CO)O[C@@H]4CO)O[C@@H]3CO [β-cyclodextrin, reference compound] | dose-dependent increase | No significant changes | – | – | – | – | – | – | – | – | – | – | – | – | –
2 | CER-001: engineered recombinant human apolipoprotein A-I HDL with sphingomyelin and DPPG; protein-to-phospholipid ratio 1:2.7, 97% Sph and 3% DPPG | – | – | dose-dependent increase | 10 mg/kg | obtained statistical significance versus placebo | −0.963 | −6.258 | −0.619 | −3.429 | +0.177 | −2.726 | inverted U-shaped dose-effect curve | statistically significant and comparable magnitude of reduction in PAV and TAV versus baseline | did achieve nominal statistical significance versus placebo | no significant changes
